Measurements: paper PMC6525201, “Targeting lonidamine to mitochondria mitigates lung tumorigenesis and brain metastasis” (Nature Communications, 2019)

Key:
[1] = target: T1, mitochondrial complex II (Homo sapiens, UniProt O14521+P21912+Q99643); assay: oxygen consumption rate, Seahorse XF96, permeabilized cells; type: cell-based
T1 construct: gene SDHB; native complex in permeabilized H2030BrM3 cells

[2] = target: T2, mitochondrial complex I (Homo sapiens, UniProt O75251+O75306+P03886); assay: as above; type: cell-based
T2 construct: gene MT-ND1; native complex in permeabilized H2030BrM3 cells

T1 sequence (P21912 29-280): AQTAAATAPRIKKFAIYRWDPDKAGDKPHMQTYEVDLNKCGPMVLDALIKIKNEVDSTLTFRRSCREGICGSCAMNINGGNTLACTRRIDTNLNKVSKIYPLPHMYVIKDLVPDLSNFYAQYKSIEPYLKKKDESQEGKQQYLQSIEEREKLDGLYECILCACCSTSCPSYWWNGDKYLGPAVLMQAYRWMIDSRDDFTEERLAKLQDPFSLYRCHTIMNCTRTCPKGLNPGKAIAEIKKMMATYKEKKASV
T1 sequence (Q99643 30-169): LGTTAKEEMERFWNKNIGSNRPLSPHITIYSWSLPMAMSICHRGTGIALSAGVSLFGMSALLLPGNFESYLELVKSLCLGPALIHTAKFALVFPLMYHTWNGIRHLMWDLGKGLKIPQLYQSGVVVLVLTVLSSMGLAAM
T1 sequence (O14521 57-159): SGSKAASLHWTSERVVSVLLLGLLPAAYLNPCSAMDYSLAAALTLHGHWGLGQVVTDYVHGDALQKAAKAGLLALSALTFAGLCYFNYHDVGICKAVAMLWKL
T1 sequence (P31040 43-664 partner): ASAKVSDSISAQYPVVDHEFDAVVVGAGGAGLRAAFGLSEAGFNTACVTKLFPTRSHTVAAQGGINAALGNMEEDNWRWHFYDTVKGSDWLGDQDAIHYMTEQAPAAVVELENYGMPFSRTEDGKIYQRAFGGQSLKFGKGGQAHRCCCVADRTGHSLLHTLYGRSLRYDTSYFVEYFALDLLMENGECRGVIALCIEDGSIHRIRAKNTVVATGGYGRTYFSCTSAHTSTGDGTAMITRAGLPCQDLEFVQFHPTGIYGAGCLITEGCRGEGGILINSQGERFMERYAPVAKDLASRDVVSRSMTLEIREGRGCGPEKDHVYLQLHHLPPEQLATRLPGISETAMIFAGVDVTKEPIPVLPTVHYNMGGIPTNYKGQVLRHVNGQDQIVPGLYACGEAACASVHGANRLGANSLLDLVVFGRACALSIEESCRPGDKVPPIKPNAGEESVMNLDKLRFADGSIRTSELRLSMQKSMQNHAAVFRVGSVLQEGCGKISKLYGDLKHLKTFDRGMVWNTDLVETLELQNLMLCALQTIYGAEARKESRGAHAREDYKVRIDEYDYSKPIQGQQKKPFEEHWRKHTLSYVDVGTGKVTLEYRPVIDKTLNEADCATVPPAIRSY

SMILES	IC50 [1] [µM]	IC50 [2] [µM]
O=C(O)c1nn(Cc2ccc(Cl)cc2Cl)c2ccccc12 [LND]	390	444
O=C(NCCCCCCCCCC[P+](c1ccccc1)(c1ccccc1)c1ccccc1)c1nn(Cc2ccc(Cl)cc2Cl)c2ccccc12 [Mito-LND]	2.4	1.2
